Test system: 817829-284-R-J1-PDC multi-cell spheroid viability
Assay: Anticancer human tumor 817829-284-R-J1-PDC patient-derived colon adenocarcinoma cell line growth inhibition [PI3K]
Conditions: for IC50: curve of first compound; for viability, T/C: stronger effect = lower value
In short: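 Tumor cells were combined with HUVEC and MSCs into spheroids, then dosed with PI3K-inhibitor combinations over half-log ranges capped near clinical Cmax or 10 microM.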

[1] = second compound 0.00316 µM, first compound 0.0316 µM
[2] = second compound 0.00316 µM, first compound 0.1 µM
[3] = second compound 0.00316 µM, first compound 0.316 µM
[4] = second compound 0.00316 µM, first compound 1 µM
[5] = second compound 0.00316 µM, first compound 3.16 µM
[6] = second compound 0.00316 µM, first compound 10 µM
[7] = second compound 0.01 µM, first compound 0.0316 µM
[8] = second compound 0.01 µM, first compound 0.1 µM
[9] = second compound 0.01 µM, first compound 0.316 µM
[10] = second compound 0.01 µM, first compound 1 µM
[11] = second compound 0.01 µM, first compound 3.16 µM
[12] = second compound 0.01 µM, first compound 10 µM
[13] = second compound 0.0316 µM, first compound 0.0316 µM
[14] = second compound 0.0316 µM, first compound 0.1 µM
[15] = second compound 0.0316 µM, first compound 0.316 µM
[16] = second compound 0.0316 µM, first compound 1 µM
[17] = second compound 0.0316 µM, first compound 3.16 µM
[18] = second compound 0.0316 µM, first compound 10 µM
[19] = second compound 0.1 µM, first compound 0.0316 µM
[20] = second compound 0.1 µM, first compound 0.1 µM
[21] = second compound 0.1 µM, first compound 0.316 µM
[22] = second compound 0.1 µM, first compound 1 µM
[23] = second compound 0.1 µM, first compound 3.16 µM
[24] = second compound 0.1 µM, first compound 10 µM
[25] = second compound 0.316 µM, first compound 0.0316 µM
[26] = second compound 0.316 µM, first compound 0.1 µM
[27] = second compound 0.316 µM, first compound 0.316 µM
[28] = second compound 0.316 µM, first compound 1 µM
[29] = second compound 0.316 µM, first compound 3.16 µM
[30] = second compound 0.316 µM, first compound 10 µM
[31] = second compound 1 µM, first compound 0.0316 µM
[32] = second compound 1 µM, first compound 0.1 µM
[33] = second compound 1 µM, first compound 0.316 µM
[34] = second compound 1 µM, first compound 1 µM
[35] = second compound 1 µM, first compound 3.16 µM
[36] = second compound 1 µM, first compound 10 µM
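Also: spheroids exposed to agents for seven days before readout.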
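For viability, T/C in this document: percent of vehicle DMSO control viability which is 100%.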

Q: For CC1(C)CCC(CN2CCN(c3ccc(C(=O)NS(=O)(=O)c4ccc(NCC5CCOCC5)c([N+](=O)[O-])c4)c(Oc4cnc5[nH]ccc5c4)c3)CC2)=C(c2ccc(Cl)cc2)C1 + COc1c(OCCCN2CCOCC2)ccc2c3n(c(=NC(=O)c4cnc(N)nc4)nc12)CCN3, which IC50 (second compound 0.00316 µM) is on record?
A: > 10 µM

Q: What about the IC50 (second compound 0.01 µM) of the same compound?
A: > 10 µM

Q: What about the IC50 (second compound 0.0316 µM) of the same compound?
A: > 10 µM

Q: What about the IC50 (second compound 0.1 µM) of the same compound?
A: < 0.0316 µM

Q: What about the IC50 (second compound 0.316 µM) of the same compound?
A: < 0.0316 µM

Q: And the IC50 (second compound 1 µM)?
A: < 0.0316 µM

Q: And the viability, T/C [1]?
A: 59.2%

Q: And the viability, T/C [2]?
A: 90.8%

Q: And the viability, T/C [3]?
A: 91.6%

Q: What about the viability, T/C [4] of the same compound?
A: 81.9%

Q: What about the viability, T/C [5] of the same compound?
A: 93.3%

Q: What about the viability, T/C [6] of the same compound?
A: 113%

Q: And the viability, T/C [7]?
A: 80.5%

Q: What about the viability, T/C [8] of the same compound?
A: 74.1%

Q: And the viability, T/C [9]?
A: 75.3%

Q: What about the viability, T/C [10] of the same compound?
A: 64.3%

Q: What about the viability, T/C [11] of the same compound?
A: 66.2%

Q: And the viability, T/C [12]?
A: 69.2%

Q: What about the viability, T/C [13] of the same compound?
A: 52.7%

Q: And the viability, T/C [14]?
A: 63.2%

Q: What about the viability, T/C [15] of the same compound?
A: 72.7%

Q: What about the viability, T/C [16] of the same compound?
A: 60.1%

Q: And the viability, T/C [17]?
A: 63%

Q: And the viability, T/C [18]?
A: 44.5%

Q: What about the viability, T/C [19] of the same compound?
A: 31.8%

Q: And the viability, T/C [20]?
A: 31.6%

Q: What about the viability, T/C [21] of the same compound?
A: 49.6%

Q: What about the viability, T/C [22] of the same compound?
A: 33.3%

Q: What about the viability, T/C [23] of the same compound?
A: 45.3%

Q: And the viability, T/C [24]?
A: 40.1%

Q: What about the viability, T/C [25] of the same compound?
A: 18.5%

Q: And the viability, T/C [26]?
A: 20.7%

Q: What about the viability, T/C [27] of the same compound?
A: 23.2%

Q: And the viability, T/C [28]?
A: 22.8%

Q: And the viability, T/C [29]?
A: 24.7%

Q: And the viability, T/C [30]?
A: 19.7%

Q: What about the viability, T/C [31] of the same compound?
A: 12.9%

Q: And the viability, T/C [32]?
A: 11.1%

Q: And the viability, T/C [33]?
A: 13.6%

Q: And the viability, T/C [34]?
A: 14.4%

Q: What about the viability, T/C [35] of the same compound?
A: 13.4%

Q: And the viability, T/C [36]?
A: 11.7%

Q: What does the source list for CCCS(=O)(=O)Nc1ccc(F)c(C(=O)c2c[nH]c3ncc(-c4ccc(Cl)cc4)cc23)c1F + COc1c(OCCCN2CCOCC2)ccc2c3n(c(=NC(=O)c4cnc(N)nc4)nc12)CCN3?
A: IC50 (second compound 0.00316 µM): 1.9 µM; IC50 (second compound 0.01 µM): 4.24 µM; IC50 (second compound 0.0316 µM): 2.3 µM; IC50 (second compound 0.1 µM): 0.0316 µM; IC50 (second compound 0.316 µM): < 0.0316 µM; IC50 (second compound 1 µM): < 0.0316 µM; viability, T/C [1]: 117%; viability, T/C [2]: 87%; viability, T/C [3]: 71.5%; viability, T/C [4]: 66.4%; viability, T/C [5]: 59.5%; viability, T/C [6]: 10.7%; viability, T/C [7]: 104%; viability, T/C [8]: 53.6%; viability, T/C [9]: 66.5%; viability, T/C [10]: 70.9%; viability, T/C [11]: 64.1%; viability, T/C [12]: 8.97%; viability, T/C [13]: 45.4%; viability, T/C [14]: 70%; viability, T/C [15]: 43.8%; viability, T/C [16]: 64.1%; viability, T/C [17]: 47.9%; viability, T/C [18]: 10.2%; viability, T/C [19]: 34.4%; viability, T/C [20]: 39.3%; viability, T/C [21]: 71.2%; viability, T/C [22]: 26.8%; viability, T/C [23]: 28.2%; viability, T/C [24]: 14.4%; viability, T/C [25]: 21.7%; viability, T/C [26]: 19.6%; viability, T/C [27]: 21.3%; viability, T/C [28]: 16%; viability, T/C [29]: 16.1%; viability, T/C [30]: 9.88%; viability, T/C [31]: 10%; viability, T/C [32]: 14.3%; viability, T/C [33]: 8.54%; viability, T/C [34]: 6.57%; viability, T/C [35]: 9.78%; viability, T/C [36]: 4.54%

Q: What does the source list for C[C@@H](NC(=O)c1ncnc(N)c1Cl)c1ncc(C(=O)Nc2cc(C(F)(F)F)c(Cl)cn2)s1 + COc1c(OCCCN2CCOCC2)ccc2c3n(c(=NC(=O)c4cnc(N)nc4)nc12)CCN3?
A: IC50 (second compound 0.00316 µM): 10 µM; IC50 (second compound 0.01 µM): > 10 µM; IC50 (second compound 0.0316 µM): > 10 µM; IC50 (second compound 0.1 µM): < 0.0316 µM; IC50 (second compound 0.316 µM): < 0.0316 µM; IC50 (second compound 1 µM): < 0.0316 µM; viability, T/C [1]: 126%; viability, T/C [2]: 153%; viability, T/C [3]: 59.9%; viability, T/C [4]: 62%; viability, T/C [5]: 69.7%; viability, T/C [6]: 69.3%; viability, T/C [7]: 101%; viability, T/C [8]: 79.9%; viability, T/C [9]: 72%; viability, T/C [10]: 68.5%; viability, T/C [11]: 75.3%; viability, T/C [12]: 87.7%; viability, T/C [13]: 68.5%; viability, T/C [14]: 64.1%; viability, T/C [15]: 43.2%; viability, T/C [16]: 57.1%; viability, T/C [17]: 64%; viability, T/C [18]: 72.3%; viability, T/C [19]: 31%; viability, T/C [20]: 38%; viability, T/C [21]: 29.8%; viability, T/C [22]: 32.3%; viability, T/C [23]: 41.5%; viability, T/C [24]: 62.8%; viability, T/C [25]: 26.3%; viability, T/C [26]: 20%; viability, T/C [27]: 24.6%; viability, T/C [28]: 23.8%; viability, T/C [29]: 21.9%; viability, T/C [30]: 16.5%; viability, T/C [31]: 11.8%; viability, T/C [32]: 10.6%; viability, T/C [33]: 10.6%; viability, T/C [34]: 9.58%; viability, T/C [35]: 10%; viability, T/C [36]: 4.95%

From PubChem BioAssay AID1963969 (Molecular Pharmacology Branch, DTP, NCI, 2024)
